Experiments:
[1] = target: Matrix metalloproteinase-9 (Homo sapiens, UniProt P14780); test: biochemical; format: cell-based;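 note: inhibition of isolated MMP-9 enzyme activity toward a synthetic peptide substrate, from the DrugMatrix protease screening panel; in other assays of this panel Not Active means under 50% inhibition at 10 µM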
[2] = target: T1, 3-hydroxy-3-methylglutaryl-coenzyme A reductase (Homo sapiens, UniProt P04035); set-up: species or system Escherichia coli;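 note: enzyme inhibition assay of HMG-CoA reductase using radiolabeled [14C]HMG-CoA as substrate; in other assays of this panel Not Active means under 50% inhibition at 10 µM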
T1 sequence (P04035 whole entry): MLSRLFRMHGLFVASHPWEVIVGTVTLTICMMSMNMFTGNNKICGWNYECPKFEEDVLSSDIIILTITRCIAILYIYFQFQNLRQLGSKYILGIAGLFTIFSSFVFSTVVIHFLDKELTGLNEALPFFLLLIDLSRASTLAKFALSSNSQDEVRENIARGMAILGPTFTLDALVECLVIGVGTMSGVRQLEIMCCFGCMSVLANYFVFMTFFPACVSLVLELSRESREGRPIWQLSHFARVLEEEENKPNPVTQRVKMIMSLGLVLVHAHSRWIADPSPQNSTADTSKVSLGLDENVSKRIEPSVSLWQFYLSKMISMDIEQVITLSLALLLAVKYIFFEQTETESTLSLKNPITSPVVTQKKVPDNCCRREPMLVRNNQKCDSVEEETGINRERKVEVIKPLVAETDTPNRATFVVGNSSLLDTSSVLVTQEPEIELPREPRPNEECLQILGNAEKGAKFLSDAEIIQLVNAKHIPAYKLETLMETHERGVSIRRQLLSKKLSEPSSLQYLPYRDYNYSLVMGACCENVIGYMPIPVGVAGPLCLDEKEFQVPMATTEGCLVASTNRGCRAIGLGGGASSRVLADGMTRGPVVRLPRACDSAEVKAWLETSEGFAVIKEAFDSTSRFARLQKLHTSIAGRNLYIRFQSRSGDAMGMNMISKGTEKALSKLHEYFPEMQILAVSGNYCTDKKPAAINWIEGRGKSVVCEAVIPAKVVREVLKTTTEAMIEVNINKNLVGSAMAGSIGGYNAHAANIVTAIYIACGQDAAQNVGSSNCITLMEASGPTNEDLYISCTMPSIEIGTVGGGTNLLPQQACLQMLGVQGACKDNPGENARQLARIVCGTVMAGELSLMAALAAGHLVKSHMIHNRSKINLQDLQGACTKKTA

[3] = target: T2, Alpha-1D adrenergic receptor (Homo sapiens, UniProt P25100); format: cell membranes, HEK293, Membrane; settings: for Ki: read-out: Ki; for all read-outs here: in other assays of this panel Not Active means under 50% inhibition at 10 µM
T2 sequence (P25100 whole entry): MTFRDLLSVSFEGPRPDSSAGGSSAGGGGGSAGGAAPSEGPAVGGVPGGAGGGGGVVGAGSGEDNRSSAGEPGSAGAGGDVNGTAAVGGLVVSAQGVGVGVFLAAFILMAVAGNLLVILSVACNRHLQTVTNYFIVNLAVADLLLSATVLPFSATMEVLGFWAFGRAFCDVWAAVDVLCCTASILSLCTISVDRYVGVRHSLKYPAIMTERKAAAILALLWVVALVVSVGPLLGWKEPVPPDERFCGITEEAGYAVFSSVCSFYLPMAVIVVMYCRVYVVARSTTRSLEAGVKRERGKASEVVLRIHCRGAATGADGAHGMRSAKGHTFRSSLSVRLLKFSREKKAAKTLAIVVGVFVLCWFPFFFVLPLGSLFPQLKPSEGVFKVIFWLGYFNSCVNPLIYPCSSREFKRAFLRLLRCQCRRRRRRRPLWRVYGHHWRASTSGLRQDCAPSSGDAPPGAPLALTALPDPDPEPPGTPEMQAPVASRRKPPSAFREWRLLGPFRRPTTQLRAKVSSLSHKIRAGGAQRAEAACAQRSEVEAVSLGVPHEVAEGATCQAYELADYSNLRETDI

[4] = target: Prostaglandin G/H synthase 1 (Homo sapiens, UniProt P23219); test: biochemical; format: tissue-based, Platelet;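 note: inhibition of COX-1 enzyme activity, with arachidonic acid supplied as substrate; in other assays of this panel Not Active means under 50% inhibition at 10 µM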
Sequence of Prostaglandin G/H synthase 1 (P23219 whole entry): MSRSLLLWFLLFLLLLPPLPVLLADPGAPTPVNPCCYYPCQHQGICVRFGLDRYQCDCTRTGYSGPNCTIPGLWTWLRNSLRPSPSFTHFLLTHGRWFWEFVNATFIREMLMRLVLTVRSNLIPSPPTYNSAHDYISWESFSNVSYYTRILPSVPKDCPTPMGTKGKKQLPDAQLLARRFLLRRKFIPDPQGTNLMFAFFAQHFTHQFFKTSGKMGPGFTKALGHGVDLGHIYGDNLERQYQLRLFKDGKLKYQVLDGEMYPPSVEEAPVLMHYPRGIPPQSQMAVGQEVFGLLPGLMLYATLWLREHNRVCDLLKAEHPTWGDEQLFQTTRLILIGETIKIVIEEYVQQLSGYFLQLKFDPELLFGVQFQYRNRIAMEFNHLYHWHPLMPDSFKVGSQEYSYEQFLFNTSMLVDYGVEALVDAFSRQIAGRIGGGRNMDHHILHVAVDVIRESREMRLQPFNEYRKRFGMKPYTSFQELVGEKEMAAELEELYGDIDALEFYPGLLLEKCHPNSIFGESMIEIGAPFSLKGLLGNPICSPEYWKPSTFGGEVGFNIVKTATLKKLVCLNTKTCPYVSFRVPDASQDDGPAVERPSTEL

[5] = target: Adenosine receptor A2a (Homo sapiens, UniProt P29274); test: DRUGMATRIX: Adenosine A2A radioligand binding (ligand: […]); format: cell membranes, Membrane; settings: hek293; Not Active = under 50% inhibition at 10 µM
Sequence of Adenosine receptor A2a (P29274 whole entry): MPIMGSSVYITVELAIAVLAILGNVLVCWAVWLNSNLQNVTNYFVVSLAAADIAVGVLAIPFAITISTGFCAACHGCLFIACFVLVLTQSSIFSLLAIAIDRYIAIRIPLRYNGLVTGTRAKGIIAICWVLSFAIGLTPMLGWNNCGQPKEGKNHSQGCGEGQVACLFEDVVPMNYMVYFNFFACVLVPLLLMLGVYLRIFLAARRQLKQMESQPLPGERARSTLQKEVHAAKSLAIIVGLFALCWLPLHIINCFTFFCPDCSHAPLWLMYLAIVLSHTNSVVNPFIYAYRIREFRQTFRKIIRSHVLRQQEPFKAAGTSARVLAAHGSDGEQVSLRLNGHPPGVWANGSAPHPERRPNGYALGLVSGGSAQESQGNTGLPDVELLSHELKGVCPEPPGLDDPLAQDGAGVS

[6] = DRUGMATRIX: Platelet-Derived Growth Factor (PDGF) radioligand binding (ligand: [125I] PDGF); format: cell-based; settings: nih3t3; Not Active = under 50% inhibition at 10 µM
[7] = DRUGMATRIX: Phosphodiesterase PDE3 enzyme inhibition (substrate: [3H]cAMP + cAMP); format: tissue-based, Homo sapiens; settings: platelet; Not Active = under 50% inhibition at 10 µM
[8] = target: T3, Alpha-1B adrenergic receptor (Rattus norvegicus, UniProt P15823); test: DRUGMATRIX: Alpha-1B adrenergic receptor radioligand binding (ligand: prazosin); format: cell membranes, Wistar, Liver, Membrane; settings: Not Active = under 50% inhibition at 10 µM
T3 sequence (P15823 whole entry): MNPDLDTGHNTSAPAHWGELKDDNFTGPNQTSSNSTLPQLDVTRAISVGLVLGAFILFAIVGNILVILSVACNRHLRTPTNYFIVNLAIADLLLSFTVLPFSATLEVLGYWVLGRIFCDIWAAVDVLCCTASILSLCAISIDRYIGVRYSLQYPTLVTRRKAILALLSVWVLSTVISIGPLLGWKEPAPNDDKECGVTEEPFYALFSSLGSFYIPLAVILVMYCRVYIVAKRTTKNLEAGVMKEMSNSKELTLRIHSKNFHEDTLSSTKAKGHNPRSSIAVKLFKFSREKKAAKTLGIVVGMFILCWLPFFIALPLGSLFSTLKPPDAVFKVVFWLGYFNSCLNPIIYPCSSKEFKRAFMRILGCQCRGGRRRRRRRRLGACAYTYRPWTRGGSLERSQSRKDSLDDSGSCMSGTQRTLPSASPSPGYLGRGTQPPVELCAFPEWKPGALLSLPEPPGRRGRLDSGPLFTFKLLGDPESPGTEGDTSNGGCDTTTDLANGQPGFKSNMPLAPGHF

Sequence of Matrix metalloproteinase-9 (P14780 whole entry): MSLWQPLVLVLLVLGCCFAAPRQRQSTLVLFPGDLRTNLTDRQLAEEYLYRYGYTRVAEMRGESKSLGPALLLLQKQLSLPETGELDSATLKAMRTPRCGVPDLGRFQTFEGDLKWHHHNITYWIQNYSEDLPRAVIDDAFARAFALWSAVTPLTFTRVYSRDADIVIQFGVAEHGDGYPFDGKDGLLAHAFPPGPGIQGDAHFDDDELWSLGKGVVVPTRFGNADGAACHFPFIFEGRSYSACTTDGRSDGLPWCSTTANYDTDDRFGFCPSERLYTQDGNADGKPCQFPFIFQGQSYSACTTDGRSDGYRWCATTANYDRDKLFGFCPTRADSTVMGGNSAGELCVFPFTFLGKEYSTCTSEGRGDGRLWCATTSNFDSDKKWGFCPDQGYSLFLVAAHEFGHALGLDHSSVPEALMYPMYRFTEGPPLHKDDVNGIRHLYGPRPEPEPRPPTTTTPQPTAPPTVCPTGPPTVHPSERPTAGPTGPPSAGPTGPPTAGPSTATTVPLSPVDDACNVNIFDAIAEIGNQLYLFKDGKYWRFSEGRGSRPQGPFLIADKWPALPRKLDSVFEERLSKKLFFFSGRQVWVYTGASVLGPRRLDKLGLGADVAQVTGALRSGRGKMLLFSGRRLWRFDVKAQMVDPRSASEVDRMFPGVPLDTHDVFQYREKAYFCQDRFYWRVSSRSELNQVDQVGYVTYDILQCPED

Row | Structure (SMILES) | IC50 [1] | IC50 [2] | IC50 ([3]; hek293) | IC50 ([4]; platelet) | IC50 [5] | IC50 [6] | Ki [6] | IC50 [7] | Ki [7] | IC50 [8] | IC50 ([3]; read-out: IC50) [µM] | Ki [3] [µM] | IC50 ([4]; read-out: IC50) [µM]
1 | CCCCc1oc2ccccc2c1C(=O)c1cc(I)c(OCCN(CC)CC)c(I)c1 [AMIODARONE] | Not Active | Not Active | Not Active | Not Active | Not Active | – | – | – | – | – | – | – | –
2 | CCOC(=O)N1CCC(=C2c3ccc(Cl)cc3CCc3cccnc32)CC1 [LORATADINE] | Not Active | Not Active | Not Active | Not Active | Not Active | Not Active | Not Active | Not Active | Not Active | Not Active | – | – | –
3 | N[C@@H](Cc1ccc(N(CCCl)CCCl)cc1)C(=O)O | Not Active | Not Active | Not Active | Not Active | Not Active | Not Active | Not Active | Not Active | Not Active | Not Active | – | – | –
4 | Cc1noc(NS(=O)(=O)c2ccc(N)cc2)c1C [SULFISOXAZOLE] | Not Active | Not Active | Not Active | Not Active | Not Active | Not Active | Not Active | Not Active | Not Active | Not Active | – | – | –
5 | N[C@@H](Cc1cc(I)c(Oc2ccc(O)c(I)c2)c(I)c1)C(=O)O [LIOTHYRONINE] | Not Active | Not Active | Not Active | Not Active | Not Active | – | – | – | – | Not Active | – | – | –
6 | c1ccc([C@H]2CN3CCSC3=N2)cc1 [LEVAMISOLE] | Not Active | Not Active | Not Active | Not Active | Not Active | Not Active | Not Active | Not Active | Not Active | Not Active | – | – | –
7 | CC(C)N1CCN(c2ccc(OCC3COC(Cn4cncn4)(c4ccc(Cl)cc4Cl)O3)cc2)CC1 (stereo not drawn) [TERCONAZOLE] | Not Active | Not Active | – | Not Active | Not Active | – | – | Not Active | Not Active | – | 14.4 | 7.07 | –
8 | CN1CCN(CCCN2c3ccccc3Sc3ccc(Cl)cc32)CC1 [PROCHLORPERAZINE] | Not Active | Not Active | – | Not Active | Not Active | – | – | – | – | – | 0.034 | 0.016 | –
9 | CC/C(=C(\c1ccccc1)c1ccc(OCCN(C)C)cc1)c1ccccc1 [TAMOXIFEN] | Not Active | Not Active | – | – | – | – | – | – | – | – | 4.98 | 2.45 | 4.39
10 | Cc1nc2n(c(=O)c1CCN1CCC(c3noc4cc(F)ccc34)CC1)CCCC2 [RISPERIDONE] | Not Active | Not Active | – | Not Active | Not Active | – | – | – | – | – | – | – | –
11 | CSc1ccc(/C=C2/C(C)=C(CC(=O)O)c3cc(F)ccc32)cc1 [SULINDAC SULFIDE] | Not Active | Not Active | Not Active | – | Not Active | Not Active | Not Active | Not Active | Not Active | Not Active | – | – | –

From ChEMBL document CHEMBL1909046, “DrugMatrix in vitro pharmacology data”
